Assay results as given in ChEMBL document CHEMBL3885881, “DrugMatrix”.

Species on record: Rattus norvegicus
Assay: DrugMatrix - Regimen: Daily Repeat
Type: toxicity, organism-based, Sprague-Dawley
Set-up: regimen Daily Repeat, gender Male, age 6-8 weeks
Details: in vivo, po, route oral GAVAGE, vehicle .5 % CMC; for ABSOLUTE BASOPHIL / ABSOLUTE EOSINOPHIL / ABSOLUTE LYMPHOCYTE / ABSOLUTE MONOCYTE / ABSOLUTE SEGMENTED NEUTROPHIL / BASOPHIL / EOSINOPHIL / ERYTHROCYTE COUNT / HEMATOCRIT / HEMOGLOBIN / LEUKOCYTE COUNT / LYMPHOCYTE / MEAN CORPUSCULAR HEMOGLOBIN / MEAN CORPUSCULAR VOLUME / MONOCYTE / NEUTROPHIL / NUCLEATED RED BLOOD CELLS / PLATELET COUNT: tissue Blood; for ALANINE AMINOTRANSFERASE / ALBUMIN / ALKALINE PHOSPHATASE / ASPARTATE AMINOTRANSFERASE / BLOOD UREA NITROGEN / CARBON DIOXIDE / CHLORIDE / CHOLESTEROL / CREATINE PHOSPHOKINASE / CREATININE / GLUCOSE / LACTATE DEHYDROGENASE / LIPASE / PHOSPHORUS / POTASSIUM / SODIUM / TOTAL BILIRUBIN / TOTAL PROTEIN / URIC ACID: tissue Plasma
[1] = 68 mg/kg, 72 h, dose level Low, time 3 day
[2] = 68 mg/kg, 120 h, dose level Low, time 5 day
[3] = 750 mg/kg, 72 h, dose level High, time 3 day
[4] = 750 mg/kg, 120 h, dose level High, time 5 day

With `C(=C\c1ccccc1)/CN1CCN(C(c2ccccc2)c2ccccc2)CC1` [CINNARIZINE] the “ABSOLUTE BASOPHIL” value [1] was 0 CELLS/uL, the “ABSOLUTE EOSINOPHIL” value [1] was 0 CELLS/uL and the “ABSOLUTE LYMPHOCYTE” value [1] was 14250 CELLS/uL. For the same compound, the “ABSOLUTE MONOCYTE” value [1] was 268.67 CELLS/uL, the “ABSOLUTE SEGMENTED NEUTROPHIL” value [1] was 1614.67 CELLS/uL and the BASOPHIL [1] was 0%. The EOSINOPHIL [1] was 0%, the “ERYTHROCYTE COUNT” value [1] was 5.37 x10E6/uL and the HEMATOCRIT [1] was 33.93%. For the same compound, the HEMOGLOBIN [1] was 12.87 G/DL, the “LEUKOCYTE COUNT” value [1] was 16.13 x10E3/uL and the LYMPHOCYTE [1] was 88.33%. The “MEAN CORPUSCULAR HEMOGLOBIN” value [1] was 24 pg, the “MEAN CORPUSCULAR VOLUME” value [1] was 63.2 fL and the MONOCYTE [1] was 1.67%. For the same compound, the NEUTROPHIL [1] was 10%, the “NUCLEATED RED BLOOD CELLS” value [1] was 0 /100WBC and the “PLATELET COUNT” value [1] was 1225 x10E3/uL. The “ALANINE AMINOTRANSFERASE” value [1] was 45.33 u/L, the ALBUMIN [1] was 4.37 G/DL and the “ALKALINE PHOSPHATASE” value [1] was 323 u/L. For the same compound, the “ASPARTATE AMINOTRANSFERASE” value [1] was 68.67 u/L, the “BLOOD UREA NITROGEN” value [1] was 15.33 mg/dL and the “CARBON DIOXIDE” value [1] was 24.33 mmol/L. For the same compound, the CHLORIDE [1] was 102 MEQ/L, the CHOLESTEROL [1] was 67.33 mg/dL and the “CREATINE PHOSPHOKINASE” value [1] was 220.67 u/L. The CREATININE [1] was 0.17 mg/dL, the GLUCOSE [1] was 136.33 mg/dL and the “LACTATE DEHYDROGENASE” value [1] was 186 u/L. For the same compound, the LIPASE [1] was 9 u/L, the PHOSPHORUS [1] was 11.57 mg/dL and the POTASSIUM [1] was 6.72 MEQ/L. The SODIUM [1] was 145.13 MEQ/L, the “TOTAL BILIRUBIN” value [1] was 0.2 mg/dL and the “TOTAL PROTEIN” value [1] was 5.33 G/DL. For the same compound, the “URIC ACID” value [1] was 1.7 mg/dL, the “ABSOLUTE BASOPHIL” value [2] was 0 CELLS/uL and the “ABSOLUTE EOSINOPHIL” value [2] was 62.67 CELLS/uL. The “ABSOLUTE LYMPHOCYTE” value [2] was 17347 CELLS/uL, the “ABSOLUTE MONOCYTE” value [2] was 686 CELLS/uL and the “ABSOLUTE SEGMENTED NEUTROPHIL” value [2] was 2204.33 CELLS/uL. For the same compound, the BASOPHIL [2] was 0%, the EOSINOPHIL [2] was 0.33% and the “ERYTHROCYTE COUNT” value [2] was 5.91 x10E6/uL. For the same compound, the HEMATOCRIT [2] was 36.67%, the HEMOGLOBIN [2] was 13.63 G/DL and the “LEUKOCYTE COUNT” value [2] was 20.3 x10E3/uL. For the same compound, the LYMPHOCYTE [2] was 85.33%, the “MEAN CORPUSCULAR HEMOGLOBIN” value [2] was 23.13 pg and the “MEAN CORPUSCULAR VOLUME” value [2] was 62.13 fL. The MONOCYTE [2] was 3.33%, the NEUTROPHIL [2] was 11% and the “NUCLEATED RED BLOOD CELLS” value [2] was 0 /100WBC. For the same compound, the “PLATELET COUNT” value [2] was 1382.33 x10E3/uL, the “ALANINE AMINOTRANSFERASE” value [2] was 44 u/L and the ALBUMIN [2] was 4.3 G/DL. For the same compound, the “ALKALINE PHOSPHATASE” value [2] was 307 u/L, the “ASPARTATE AMINOTRANSFERASE” value [2] was 78.33 u/L and the “BLOOD UREA NITROGEN” value [2] was 21.67 mg/dL. The “CARBON DIOXIDE” value [2] was 26 mmol/L, the CHLORIDE [2] was 107.33 MEQ/L and the CHOLESTEROL [2] was 53.33 mg/dL. The “CREATINE PHOSPHOKINASE” value [2] was 288.33 u/L, the CREATININE [2] was 0.19 mg/dL and the GLUCOSE [2] was 133 mg/dL. For the same compound, the “LACTATE DEHYDROGENASE” value [2] was 263 u/L, the LIPASE [2] was 8.67 u/L and the PHOSPHORUS [2] was 11.3 mg/dL. The POTASSIUM [2] was 6.89 MEQ/L, the SODIUM [2] was 145.37 MEQ/L and the “TOTAL BILIRUBIN” value [2] was 0.17 mg/dL. For the same compound, the “TOTAL PROTEIN” value [2] was 6.13 G/DL, the “URIC ACID” value [2] was 1.5 mg/dL and the “ABSOLUTE BASOPHIL” value [3] was 0 CELLS/uL. The “ABSOLUTE EOSINOPHIL” value [3] was 121.67 CELLS/uL, the “ABSOLUTE LYMPHOCYTE” value [3] was 10962.67 CELLS/uL and the “ABSOLUTE MONOCYTE” value [3] was 242 CELLS/uL. For the same compound, the “ABSOLUTE SEGMENTED NEUTROPHIL” value [3] was 773.67 CELLS/uL, the BASOPHIL [3] was 0% and the EOSINOPHIL [3] was 1%. The “ERYTHROCYTE COUNT” value [3] was 6.6 x10E6/uL, the HEMATOCRIT [3] was 41.67% and the HEMOGLOBIN [3] was 15.33 G/DL. The “LEUKOCYTE COUNT” value [3] was 12.1 x10E3/uL, the LYMPHOCYTE [3] was 90.67% and the “MEAN CORPUSCULAR HEMOGLOBIN” value [3] was 23.23 pg. The “MEAN CORPUSCULAR VOLUME” value [3] was 63.07 fL, the MONOCYTE [3] was 2% and the NEUTROPHIL [3] was 6.33%. For the same compound, the “NUCLEATED RED BLOOD CELLS” value [3] was 0 /100WBC, the “PLATELET COUNT” value [3] was 1456.67 x10E3/uL and the “ALANINE AMINOTRANSFERASE” value [3] was 52.33 u/L. For the same compound, the ALBUMIN [3] was 4.3 G/DL, the “ALKALINE PHOSPHATASE” value [3] was 423.33 u/L and the “ASPARTATE AMINOTRANSFERASE” value [3] was 79.33 u/L. The “BLOOD UREA NITROGEN” value [3] was 19 mg/dL, the “CARBON DIOXIDE” value [3] was 26.67 mmol/L and the CHLORIDE [3] was 99.33 MEQ/L. The CHOLESTEROL [3] was 58.67 mg/dL, the “CREATINE PHOSPHOKINASE” value [3] was 294.67 u/L and the CREATININE [3] was 0.19 mg/dL. The GLUCOSE [3] was 138 mg/dL, the “LACTATE DEHYDROGENASE” value [3] was 240.67 u/L and the LIPASE [3] was 10 u/L. For the same compound, the PHOSPHORUS [3] was 11.73 mg/dL, the POTASSIUM [3] was 6.79 MEQ/L and the SODIUM [3] was 141.93 MEQ/L. For the same compound, the “TOTAL BILIRUBIN” value [3] was 0.17 mg/dL, the “TOTAL PROTEIN” value [3] was 6.1 G/DL and the “URIC ACID” value [3] was 1.8 mg/dL. For the same compound, the “ABSOLUTE BASOPHIL” value [4] was 0 CELLS/uL, the “ABSOLUTE EOSINOPHIL” value [4] was 0 CELLS/uL and the “ABSOLUTE LYMPHOCYTE” value [4] was 10935.67 CELLS/uL. The “ABSOLUTE MONOCYTE” value [4] was 287 CELLS/uL, the “ABSOLUTE SEGMENTED NEUTROPHIL” value [4] was 1277.33 CELLS/uL and the BASOPHIL [4] was 0%. The EOSINOPHIL [4] was 0%, the “ERYTHROCYTE COUNT” value [4] was 6.35 x10E6/uL and the HEMATOCRIT [4] was 38.33%. For the same compound, the HEMOGLOBIN [4] was 14.23 G/DL, the “LEUKOCYTE COUNT” value [4] was 12.5 x10E3/uL and the LYMPHOCYTE [4] was 87.67%. For the same compound, the “MEAN CORPUSCULAR HEMOGLOBIN” value [4] was 22.4 pg, the “MEAN CORPUSCULAR VOLUME” value [4] was 60.4 fL and the MONOCYTE [4] was 2.33%. The NEUTROPHIL [4] was 10%, the “NUCLEATED RED BLOOD CELLS” value [4] was 0 /100WBC and the “PLATELET COUNT” value [4] was 1123.67 x10E3/uL. The “ALANINE AMINOTRANSFERASE” value [4] was 56 u/L, the ALBUMIN [4] was 4.1 G/DL and the “ALKALINE PHOSPHATASE” value [4] was 361.67 u/L. The “ASPARTATE AMINOTRANSFERASE” value [4] was 78.67 u/L, the “BLOOD UREA NITROGEN” value [4] was 17.67 mg/dL and the “CARBON DIOXIDE” value [4] was 27 mmol/L. For the same compound, the CHLORIDE [4] was 103.67 MEQ/L, the CHOLESTEROL [4] was 72.33 mg/dL and the “CREATINE PHOSPHOKINASE” value [4] was 366.67 u/L. For the same compound, the CREATININE [4] was 0.16 mg/dL, the GLUCOSE [4] was 155.33 mg/dL and the “LACTATE DEHYDROGENASE” value [4] was 194.67 u/L. It also gave an LIPASE [4] of 10 u/L, a PHOSPHORUS [4] of 12.9 mg/dL and a POTASSIUM [4] of 7.06 MEQ/L. The SODIUM [4] was 147.1 MEQ/L, the “TOTAL BILIRUBIN” value [4] was 0.17 mg/dL and the “TOTAL PROTEIN” value [4] was 5.9 G/DL. For the same compound, the “URIC ACID” value [4] was 2 mg/dL.
